Reference: the NIST ThermoML archive (doi:10.1016/j.jct.2015.04.029)

Experiments:
[1] = wn = mass fraction of the nth substance listed; settings: for mass density: 100 kPa, Liquid, Vibrating tube method; for surface tension liquid-gas: Maximal bubble pressure
[2] = refractive index (Na D-line) (dimensionless); wn = mass fraction of the nth substance listed; settings: 100 kPa, Liquid, Standard Abbe refractometry

CCC[n+]1ccn(C)c1.N[C@@H](CO)C(=O)[O-] [1-methyl-3-propylimidazolium L-serinate] + O
Settings | mass density [kg/m3] | refractive index | surface tension liquid-gas [mN/m]
[1], 328.15 K, w2 = 0.00939 | 1162.83 | – | –
[1], 328.15 K, w2 = 0.0109 | 1162.87 | – | –
[1], 328.15 K, w2 = 0.0124 | 1162.91 | – | –
[1], 333.15 K, w2 = 0.00636 | 1159.67 | – | –
[1], 333.15 K, w2 = 0.00641 | – | – | 47.8
[1], 333.15 K, w2 = 0.00785 | 1159.7 | – | –
[1], 333.15 K, w2 = 0.00791 | – | – | 48.5
[1], 333.15 K, w2 = 0.00939 | 1159.74 | – | –
[1], 333.15 K, w2 = 0.00942 | – | – | 49.1
[1], 333.15 K, w2 = 0.0109 | 1159.79 | – | –
[1], 333.15 K, w2 = 0.01091 | – | – | 49.7
[1], 333.15 K, w2 = 0.0124 | 1159.83 | – | –
[1], 333.15 K, w2 = 0.01241 | – | – | 50.4
[1], 338.15 K, w2 = 0.00636 | 1156.58 | – | –
[1], 338.15 K, w2 = 0.00641 | – | – | 47.5
[1], 338.15 K, w2 = 0.00785 | 1156.62 | – | –
[1], 338.15 K, w2 = 0.00791 | – | – | 48.2
[1], 338.15 K, w2 = 0.00939 | 1156.65 | – | –
[1], 338.15 K, w2 = 0.00942 | – | – | 48.7
[1], 338.15 K, w2 = 0.0109 | 1156.69 | – | –
[1], 338.15 K, w2 = 0.01091 | – | – | 49.3
[1], 338.15 K, w2 = 0.0124 | 1156.73 | – | –
[1], 338.15 K, w2 = 0.01241 | – | – | 50
[2], 298.15 K, w2 = 0.00614 | – | 1.5158 | –
[2], 298.15 K, w2 = 0.00766 | – | 1.5154 | –
[2], 298.15 K, w2 = 0.00917 | – | 1.5149 | –
[2], 298.15 K, w2 = 0.01069 | – | 1.5144 | –
[2], 298.15 K, w2 = 0.01217 | – | 1.514 | –
[2], 303.15 K, w2 = 0.00614 | – | 1.5145 | –
[2], 303.15 K, w2 = 0.00766 | – | 1.514 | –
[2], 303.15 K, w2 = 0.00917 | – | 1.5135 | –
[2], 303.15 K, w2 = 0.01069 | – | 1.5131 | –
[2], 303.15 K, w2 = 0.01217 | – | 1.5125 | –
[2], 308.15 K, w2 = 0.00614 | – | 1.5131 | –
[2], 308.15 K, w2 = 0.00766 | – | 1.5126 | –
[2], 308.15 K, w2 = 0.00917 | – | 1.5119 | –
[2], 308.15 K, w2 = 0.01069 | – | 1.5115 | –
[2], 308.15 K, w2 = 0.01217 | – | 1.5109 | –
[2], 313.15 K, w2 = 0.00614 | – | 1.5118 | –
[2], 313.15 K, w2 = 0.00766 | – | 1.5113 | –
[2], 313.15 K, w2 = 0.00917 | – | 1.5106 | –
[2], 313.15 K, w2 = 0.01069 | – | 1.5102 | –
[2], 313.15 K, w2 = 0.01217 | – | 1.5095 | –
[2], 318.15 K, w2 = 0.00614 | – | 1.5106 | –
[2], 318.15 K, w2 = 0.00766 | – | 1.5099 | –
[2], 318.15 K, w2 = 0.00917 | – | 1.5092 | –
[2], 318.15 K, w2 = 0.01069 | – | 1.5087 | –
[2], 318.15 K, w2 = 0.01217 | – | 1.5081 | –
[2], 323.15 K, w2 = 0.00614 | – | 1.5094 | –
[2], 323.15 K, w2 = 0.00766 | – | 1.5086 | –
[2], 323.15 K, w2 = 0.00917 | – | 1.5078 | –
[2], 323.15 K, w2 = 0.01069 | – | 1.5072 | –
[2], 323.15 K, w2 = 0.01217 | – | 1.5065 | –
[2], 328.15 K, w2 = 0.00614 | – | 1.5081 | –
[2], 328.15 K, w2 = 0.00766 | – | 1.5072 | –
[2], 328.15 K, w2 = 0.00917 | – | 1.5063 | –
[2], 328.15 K, w2 = 0.01069 | – | 1.5056 | –
[2], 328.15 K, w2 = 0.01217 | – | 1.505 | –
[2], 333.15 K, w2 = 0.00614 | – | 1.5068 | –
[2], 333.15 K, w2 = 0.00766 | – | 1.5058 | –
[2], 333.15 K, w2 = 0.00917 | – | 1.5049 | –
[2], 333.15 K, w2 = 0.01069 | – | 1.5042 | –
[2], 333.15 K, w2 = 0.01217 | – | 1.5035 | –
[2], 338.15 K, w2 = 0.00614 | – | 1.5054 | –
[2], 338.15 K, w2 = 0.00766 | – | 1.5044 | –
[2], 338.15 K, w2 = 0.00917 | – | 1.5036 | –
[2], 338.15 K, w2 = 0.01069 | – | 1.5028 | –
[2], 338.15 K, w2 = 0.01217 | – | 1.5021 | –
